The values below come from publication PMC3809102 (Current cancer drug targets, 2010).

One experiment addresses Ku70 (Homo sapiens, UniProt P12956). In words: surface plasmon resonance. Format: binding. A general note: In SPR one partner is held on a chip, and binding of the other changes the refractive index at the surface.
A further experiment has as its target T1, SIRT1 (Homo sapiens, UniProt Q96EB6).
T1 sequence (Q96EB6 2-747): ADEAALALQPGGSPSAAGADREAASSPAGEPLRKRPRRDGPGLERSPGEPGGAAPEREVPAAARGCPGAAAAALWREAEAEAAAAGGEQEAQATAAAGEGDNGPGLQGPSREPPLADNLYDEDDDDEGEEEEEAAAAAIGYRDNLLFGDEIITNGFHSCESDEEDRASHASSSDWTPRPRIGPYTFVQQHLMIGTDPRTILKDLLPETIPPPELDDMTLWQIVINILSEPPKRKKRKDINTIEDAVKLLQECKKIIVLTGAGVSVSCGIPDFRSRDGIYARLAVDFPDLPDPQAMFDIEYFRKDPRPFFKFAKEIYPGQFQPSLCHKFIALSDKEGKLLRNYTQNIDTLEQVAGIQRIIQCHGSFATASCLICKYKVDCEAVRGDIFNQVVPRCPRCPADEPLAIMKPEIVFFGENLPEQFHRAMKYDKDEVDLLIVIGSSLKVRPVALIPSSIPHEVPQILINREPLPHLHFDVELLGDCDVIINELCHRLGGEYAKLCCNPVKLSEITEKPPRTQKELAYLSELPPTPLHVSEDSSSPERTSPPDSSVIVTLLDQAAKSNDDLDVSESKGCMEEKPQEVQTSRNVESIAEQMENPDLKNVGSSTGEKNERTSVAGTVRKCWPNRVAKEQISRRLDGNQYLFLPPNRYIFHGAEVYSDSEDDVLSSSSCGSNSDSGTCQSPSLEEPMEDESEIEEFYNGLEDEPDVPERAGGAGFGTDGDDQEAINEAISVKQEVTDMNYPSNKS
Description: cell-free SIRT1 FRET-based screening assay. Format: biochemical.

Ku70, sequence (P12956 2-609): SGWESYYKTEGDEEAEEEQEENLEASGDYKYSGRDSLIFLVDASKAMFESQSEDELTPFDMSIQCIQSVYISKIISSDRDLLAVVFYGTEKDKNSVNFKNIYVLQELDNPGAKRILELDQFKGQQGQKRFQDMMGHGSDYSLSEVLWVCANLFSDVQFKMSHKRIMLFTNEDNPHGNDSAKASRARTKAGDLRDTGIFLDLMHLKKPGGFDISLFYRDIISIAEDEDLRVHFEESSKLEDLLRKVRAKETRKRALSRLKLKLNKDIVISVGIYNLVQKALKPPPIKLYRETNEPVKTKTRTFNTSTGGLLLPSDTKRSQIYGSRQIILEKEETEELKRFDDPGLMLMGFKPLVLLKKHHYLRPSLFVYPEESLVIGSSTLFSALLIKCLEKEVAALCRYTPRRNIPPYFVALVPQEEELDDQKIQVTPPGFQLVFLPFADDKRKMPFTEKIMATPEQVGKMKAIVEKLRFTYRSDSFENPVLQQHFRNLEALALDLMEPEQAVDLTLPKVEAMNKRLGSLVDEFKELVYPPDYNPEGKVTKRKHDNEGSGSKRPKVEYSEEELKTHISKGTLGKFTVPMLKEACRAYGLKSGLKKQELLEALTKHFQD

On Ku70, `COc1ccc(C2=NC(c3ccc(Cl)cc3)C(c3ccc(Cl)cc3)N2C(=O)N2CCNC(=O)C2)c(OC(C)C)c1` (racemic) [Nutlin-3, (±)-4-[4,5-Bis(4-chlorophenyl)-2-(2-isopropoxy-4-methoxy-phenyl)-4,5-dihydro-imidazole-1-carbonyl]-piperazin-2-one] yielded a Kd of 169 µM. Further, the “cell-free SIRT1 FRET-based screening assay (Cayman kit), 15 μM” value at SIRT1 is “MI-219, MI-319 and Nutlin-3 significantly suppressed SIRT1 activity while the inactive analog MI-10 did not”.
Compound MI-319 returned a Kd at Ku70 of 0.17 µM.

The Kd is the free concentration of one partner at which half of the binding sites on the other are occupied at equilibrium, for simple one-to-one binding. Low values mean a tighter complex, high ones a looser complex.
